Activity calls are given as the source filed them. The calls are words filed in the database; no cut-off is given here.
Columns and labels:
Drosophila [1] = assay: Innate immunity-regulating activity in Drosophila Dpt-lacZ larvae assessed as suppression of immune response by measuring DAP-type peptidoglycan-mediated Dpt-lacZ activation at 10 ug/ml incubated at 25 degC for 12 hrs by beta-galactosidase reporter gene assay; format: functional
Drosophila [2] = assay: Innate immunity-regulating activity in Drosophila Dpt-lacZ larvae assessed as suppression of immune response by measuring DAP-type peptidoglycan-mediated Dpt-lacZ activation at 1 ug/ml incubated at 25 degC for 12 hrs by beta-galactosidase reporter gene assay; format: functional, organism-based
Drosophila [3] = assay: Innate immunity-regulating activity in Drosophila Dpt-lacZ larvae assessed as suppression of immune response by measuring DAP-type peptidoglycan-mediated Dpt-lacZ activation at 0.1 to 100 ug/ml incubated at 25 degC for 12 hrs by beta-galactosidase reporter gene assay; format: functional, organism-based
Drosophila [4] = assay: Cytotoxicity against Drosophila S2 assessed as reduction in cell viability at 0.1 to 100 ug/ml by WST8 dye based assay

SMILES | inhibition (Drosophila [1]) | also measured
CC[C@@H](C)[C@H]1NC(=O)[C@@H](NC(C)=O)[C@@H](C)OC(=O)[C@H](C(C)C)NC(=O)[C@H](Cc2ccc(OC)cc2)N(C)C(=O)[C@@H]2CCCN2C(=O)[C@@H]2CCCN2C1=O | inactive | 
CC[C@@H](C)[C@H]1NC(=O)[C@@H](NC(C)=O)[C@@H](C)OC(=O)[C@H](C(C)C)NC(=O)[C@H](Cc2ccccc2)NC(=O)[C@@H]2CCCN2C(=O)[C@@H]2CCCN2C1=O | inactive | 
COc1cc(O)c2c(c1)/C=C/C[C@H](O)[C@H](O)[C@@H](O)/C=C/C[C@H](C)OC2=O |  | inhibition (Drosophila [2]): Active
CCC[C@H]1NC(=O)[C@@H](NC(C)=O)[C@@H](C)OC(=O)[C@H](C(C)C)NC(=O)[C@H](Cc2ccc(OC)cc2)N(C)C(=O)[C@@H]2CCCN2C(=O)[C@@H]2CCCN2C1=O | inactive | 
CC[C@@H](C)[C@@H]1NC(=O)[C@H](Cc2ccc(OC)cc2)N(C)C(=O)[C@@H]2CCCN2C(=O)[C@@H]2CCCN2C(=O)[C@@H]([C@H](C)CC)NC(=O)[C@@H](NC(C)=O)[C@@H](C)OC1=O |  | inhibition at 10 µg/mL (Drosophila [1]): 37%; inhibition (Drosophila [3]): Dose-dependent effect; Activity (Drosophila [4]): Non-toxic
CC[C@@H](C)[C@H]1NC(=O)[C@@H](NC(C)=O)[C@@H](C)OC(=O)[C@H]([C@@H](C)CC)NC(=O)[C@H](Cc2ccc(OC)cc2)N(C)C(=O)[C@@H]2CCCN2C(=O)[C@@H]2CCCN2C1=O | inactive | 
CC[C@@H](C)[C@H]1NC(=O)[C@@H](NC(C)=O)[C@@H](C)OC(=O)[C@H](C(C)C)NC(=O)[C@H](Cc2ccccc2)N(C)C(=O)[C@@H]2CCCN2C(=O)[C@@H]2CCCN2C1=O | inactive | 

From ChEMBL document CHEMBL3593213, “Isolation of a Cyclic Depsipetide, Aspergillicin F, and Synthesis of Aspergillicins with Innate Immune-Modulating Activity” (J Nat Prod, 2015)
